Assay results as given in patent US10071981B2, “Method of priming plants against abiotic stress factors” (Research Foundation of The City University of New York, priority 2014, dated 2018).
“Also recorded” adds a separate entry of the source.

Experiments:
Type in all cases: in vivo
Medicago sativa plants [1] = experiment: Macroscopic (phenotypic) observation of drought-stressed plants; details: for phenotype (vitality, turgor, greening): 100 μM foliar spraying, 30% MetOH, 6 d after stress imposition, vs drought-stressed plants, FIG. 9; for recovery capacity (phenotype): day 7 (6 d drought + 1 d rewatering), vs drought-stressed alone, FIG. 10; for phenotype after second wave of drought stress: day 13, another 6 days without watering, FIG. 11
Method: where cPTIO represents a NO inhibitor, while HXL is a H2S inhibitor. In addition to the previous setup of sampling control and drought-stressed samples, plants were re-watered at 6 d after drought stress imposition and additional sampling was carried out 1 d after rewatering to examine recovery of plants, while a second wave of drought stress was imposed to see if primed plants develop a longer-term, ‘memory’ effect. Plant Material and Stress Conditions
(§1) Mature (42 d) Medicago sativa plants were used for the purposes of this study. These were grown in soil medium under controlled, optimal growth conditions and were then subjected to drought stress. Drought was imposed by withholding watering until drought symptoms (loss of turgour, wilting, chlorosis) were observed (6 d after stress imposition). Samples were then re-watered to observe recovery potential after 1 day (7 d). Both NOSH and NOSH-aspirin were applied at 100 μM concentration by foliar spraying at the start of stress imposition. The hybrid donors were diluted in 30% (v/v) methanol. Physiological parameters (stomatal conductance and chlorophyll fluorescence) were measured with a DT-Porometer AP4 (Delta-TDevices, Cambridge, UK) and an OptiSci OS-30p chlorophyll fluorometer (Opti-Sciences, Hudson, N.H., USA) respectively (Filippou et al., 2013). Chlorophyll fluorescence (Fv/Fm) of leaves represents the maximum photochemical efficiency of photosystem II (PSII). Cellular damage was evaluated by lipid peroxidation levels (TBARS content), nitric oxide (NO) content (nitrosative stress) and hydrogen peroxide (H2O2) content (oxidative stress) as previously described (Filippou et al., 2011; Tanou et al., 2012), while osmoprotective capacity was evaluated by proline content (ninhydrin assay) as previously described (Antoniou et al., 2013). Antioxidant enzyme activities (SOD and CAT) were measured as previously described (Filippou et al., 2014). Real-time RT-PCR gene expression analysis was carried out using a Biorad IQ5 thermocycler as previously described (Filippou et al., 2013). Relative quantification of gene expression and statistical analysis of all qRT-PCR data (pairwise fixed reallocation randomization test) were performed using the REST software according to Pfaffl et al. (2002). The actin 11 gene was used as a housekeeping reference gene. All analyses were carried out using three independent biological pools of samples as replicates (with a minimum of fifteen independent plants per pooled sample). The experimental setup is shown schematically in FIG. 8.

Medicago sativa plants [2] = experiment: Physiological measurements (stomatal conductance, chlorophyll fluorescence) in drought-stressed plants; details: 100 μM; vs drought-stressed samples; FIG. 12
Method: as §1

Medicago sativa plants [3] = experiment: Hydrogen peroxide content in leaves of drought-stressed plants; details: FIG. 14A
Method: as §1
Abiotic stress conditions are associated with increased levels of reactive oxygen (ROS) and reactive nitrogen (RNS) species content, which are toxic for the cells. During such conditions, the production of ROS and RNS exceeds the capacity of the antioxidative defense systems to remove them, causing nitro-oxidative stress.

Medicago sativa plants [4] = experiment: Nitric oxide content in leaves of drought-stressed plants; details: 100 μM; vs drought-stressed samples; FIG. 14B
Method: as §1, with “Antioxidant enzyme activities (SOD and CAT) were measured as previously described (Filippou et al., 2014). Real-time RT-PCR gene expression analysis was carried out using a Biorad IQ5 thermocycler as previously described (Filippou et al., 2013). Relative quantification of gene expression and statistical analysis of all qRT-PCR data (pairwise fixed reallocation randomization test) were performed using the REST software according to Pfaffl et al. (2002). The actin 11 gene was used as a housekeeping reference gene. All analyses were carried out using three independent biological pools of samples as replicates (with a minimum of fifteen independent plants per pooled sample). The experimental setup is shown schematically in FIG. 8.” left out

Medicago sativa plants [5] = experiment: Antioxidant enzyme activities (SOD and CAT) in leaves of drought-stressed plants; details: 7 d, after rewatering, vs stressed-alone plants; for SOD enzymatic activity: FIG. 16A; for CAT enzymatic activity: FIG. 16B
Method: as §1
The enzymatic activity of two key antioxidants (SOD and CAT) were evaluated. SOD dismutates superoxide radicals to hydrogen peroxide, while CAT directly scavenges hydrogen peroxide. Both enzymes appear to be regulated in response to stress and priming agent pretreatment in a differential manner (FIG. 16). […] In any case, it should be noted that the cellular enzymatic antioxidant battery linked with ROS scavenging is very complex involving several other components (e.g. APX), isoforms in several compartments (e.g. peroxisomes, chloroplasts, mitochondria), as well as non-enzymatic antioxidants (e.g. ascorbic acid, tocopherols and glutathione).

Medicago sativa plants [6] = experiment: Real-time RT-PCR gene expression in leaves of drought-stressed plants; details: FIG. 17; for relative gene expression of genes examined (NR, GST17, Cu/ZnSOD, FeSOD, APX, PIP): after rewatering, vs drought-stressed alone plants; for SOD isoforms (Cu/ZnSOD, FeSOD) relative gene expression: pretreated and stressed vs stressed alone plants
Method: as §1
Finally, qRT-PCR gene expression analysis was carried out (FIG. 17) for key defense-related genes, including major enzymatic antioxidants (GST17, Cu/ZnSOD, FeSOD, cAPX) linked with ROS scavenging, as well as genes involved in NO biosynthesis (NR). In addition, an aquaporin (PIP) was also examined which is linked with response to water deficit and transport.

[7] = tested on: Arabidopsis thaliana Col-0 plants; experiment: Growth promotion (leaf area, ImageJ leaf series) on MS agar plates; details: 23 DAS; for true leaf 4 and 5 area: vs control samples
Method: An in vitro experiment was carried out in order to evaluate the potential of NOSH and NOSH-A for growth promotion in terms of leaf area increase in Arabidopsis thaliana plants. Arabidopsis thaliana Col-0 plants were used for the purposes of this study. Seeds were placed on MS agar plates containing 10 μM or 100 μM NOSH or NOSH-A (diluted in 20% (v/v) acetone) which were then incubated in the dark at 4° C. for 4 days for stratification purposes. Appropriate control plates were also prepared. The plates were then placed in a growth chamber and leaves were sampled at 23 DAS (days after sowing). Complete leaf series were examined from seven individual plants per treatment (n=7). A complete leaf series consists of all leaves from each individual plant, starting from the cotyledons and including all true leaves, harvested and examined in order of presence on the plant (from older to younger true leaf). These leaves are excised and placed on agar plates where photographs are taken and leaf areas are calculated using ImageJ software (http://imagej.nih.gov/ij/).

[8] = 100 μM, 6 d drought, vs drought-stressed samples
[9] = rewatering at 7 d vs respective pretreated, drought-stressed samples at 6 d

SMILES: O=C(CCCO[N+](=O)[O-])Oc1ccccc1C(=O)Oc1ccc(-c2cc(=S)ss2)cc1 [NOSH-A]
- phenotype (vitality, turgor, greening) (Medicago sativa plants [1]): significantly improved vitality, turgor and greening
- recovery capacity (phenotype) (Medicago sativa plants [1]): notably improved recovery capacity
- phenotype after second wave of drought stress (Medicago sativa plants [1]): maintained growth and vitality
- chlorophyll fluorescence (Fv/Fm) (Medicago sativa plants [2]): significantly higher
- stomatal conductance (Medicago sativa plants [2]): significantly higher
- H2O2 content (Medicago sativa plants [3]; [8]): significantly reversed
- H2O2 content (Medicago sativa plants [3]; [9]): ameliorated even further
- nitric oxide (NO) content (Medicago sativa plants [4]): significantly reversed
- SOD enzymatic activity (Medicago sativa plants [5]): significantly induced
- CAT enzymatic activity (Medicago sativa plants [5]): increased CAT enzymatic activity; also recorded: significantly induced
- relative gene expression of genes examined (NR, GST17, Cu/ZnSOD, FeSOD, APX, PIP) (Medicago sativa plants [6]): general suppression of most genes examined
- SOD isoforms (Cu/ZnSOD, FeSOD) relative gene expression (Medicago sativa plants [6]): significant transcriptional regulation (induction)
- growth induction (macroscopic analysis) ([7]; 10 μM in MS agar): visible growth induction
- true leaf 4 and 5 area ([7]; 10 μM, n=7, FIG. 22): no significant increase
- growth induction (macroscopic analysis) ([7]; 100 μM in MS agar): contrarily

SMILES: O=C(CCCO[N+](=O)[O-])Oc1ccc(-c2cc(=S)ss2)cc1 [NOSH]
- phenotype (vitality, turgor, greening) (Medicago sativa plants [1]): significantly improved vitality, turgor and greening
- recovery capacity (phenotype) (Medicago sativa plants [1]): notably improved recovery capacity
- phenotype after second wave of drought stress (Medicago sativa plants [1]): maintained growth and vitality
- chlorophyll fluorescence (Fv/Fm) (Medicago sativa plants [2]): significantly higher
- stomatal conductance (Medicago sativa plants [2]): significantly higher
- H2O2 content (Medicago sativa plants [3]; [8]): significantly reversed
- H2O2 content (Medicago sativa plants [3]; [9]): ameliorated even further
- nitric oxide (NO) content (Medicago sativa plants [4]): significantly reversed
- SOD enzymatic activity (Medicago sativa plants [5]): significantly induced
- CAT enzymatic activity (Medicago sativa plants [5]): increased CAT enzymatic activity; also recorded: significantly induced
- relative gene expression of genes examined (NR, GST17, Cu/ZnSOD, FeSOD, APX, PIP) (Medicago sativa plants [6]): general suppression of most genes examined
- SOD isoforms (Cu/ZnSOD, FeSOD) relative gene expression (Medicago sativa plants [6]): significant transcriptional regulation (induction)
- growth induction (macroscopic analysis) ([7]; 10 μM in MS agar): visible growth induction
- overall rosette area (total leaf area per plant), increase compared with control plants ([7]; 10 μM, n=7, FIG. 22): 37%
- true leaf 4 and 5 area ([7]; 10 μM, n=7, FIG. 22): significantly higher
- growth induction (macroscopic analysis) ([7]; 100 μM in MS agar): contrarily
- greening of leaves ([7]; MS agar plates, FIGS. 18-21): increased greening
